Source: US20240307374A1, “FORMULATION OF FURIN INHIBITOR FOR INHALATION” (BP ASSET V, INC., priority 2021, published 2024)
Where a name gives a salt, the structure may show the parent alone. Read-outs that look alike come from different tables or passages of the source. Marks after values point to notes of the source that are not given here.

How the values were obtained:
Assay type in all cases: physicochemical
[1] = DVS (dynamic vapor sorption) moisture uptake; conditions: XRPD before and after DVS
Procedure: (FIG. 5). Sample weight decreased rapidly when humidity decreased from 10% to 0%, which might be caused by loss of crystalline water.
DVS was measured via a SMS (Surface Measurement Systems) DVS Intrinsic.

Grinding stability = conditions: ~30 mg ground manually in a mortar for about 5 minutes
[2] = Equilibrium solubility in pH buffers (3.0-8.0), 20% captisol and water; conditions: 24 hrs; for S: solubility: RT
Procedure: Additional solids were added into the sample to generate suspension if clear solution obtained. The suspension was equilibrated via stirring (1000 rpm). The suspension was centrifuged to obtain precipitate and supernatants.
Solubility and pH were tested for the supernatants after filtration, and isolated precipitate was tested by XRPD.
(§1) • 1. pH=3.0 buffer (50 mM HCl+KCl): Weigh 365.39 mg KCl into a 100 mL volumetric flask (VF), and add 0.1 mL 1M HCl into the VF, and dilute to volume with water. • 2. pH=4.0 buffer (50 mM citrate): Weigh 56.74 mg citric acid and 60.18 mg trisodium citrate into a 10 mL volumetric flask, and dilute to volume with water. • 3. pH=5.0 buffer (50 mM citrate) Weigh 11.12 mg citric acid and 95.38 mg trisodium citrate into a 10 mL volumetric flask, and dilute to volume with water. • 4. pH=6.0 buffer (50 mM citrate) Weigh 11.04 mg citric acid and 130.2 mg trisodium citrate into a 10 mL volumetric flask, and dilute to volume with water. • 5. pH=6.0 buffer (50 mM phosphate) Weigh 8.7 mg Na2HPO4 and 52.6 mg NaH2PO4 into a 10 mL volumetric flask, and dilute to volume with water. • 6. pH=7.0 buffer (50 mM phosphate) Weigh 23.47 mg Na2HPO4 and 43.34 mg NaH2PO4into a 10 mL volumetric flask, and dilute to volume with water. • 7. pH=8.0 buffer (50 mM phosphate) Weigh 31.64 mg Na2HPO4 and 67.18 mg NaH2PO4into a 10 mL volumetric flask, and dilute to volume with water.

[3] = Equilibrium solubility in pH buffers (pH 4.0-6.0) with pH adjustment; conditions: for S: solubility: RT, with pH adjustment; for pH before adjustment (in brackets): 24 hours
Procedure: In details, ˜5 mg of solids were suspended into 1 mL of each medium with dosing conc. at ˜5 mg/mL. Additional solids were added into the sample to generate suspension if clear solution was obtained. The suspension was equilibrated via stirring (1000 rpm) for 24 hours. The pH of the suspension was adjusted when the final pH shifted above 0.3, and the samples were stirred for another 1.5 hours after pH adjustment. The suspension was centrifuged to obtain precipitate and supernatants. Solubility, purity and pH were tested for the supernatants after filtration, and isolated precipitate was tested by XRPD.
as §1

[4] = Solubility profile of freeform Type D in citrate buffers; conditions: aqueous citrate buffer, aqueous buffer; citrate salt prepared in situ, summary statement; read-out: aqueous solubility
Procedure: Additional solids were added into the sample to generate suspension if clear solution was obtained. The suspension was equilibrated via stirring (1000 rpm) for 24 hours. The suspension was centrifuged to obtain precipitate and supernatants. Solubility and pH were tested for the supernatants after filtration, and the isolated precipitate was tested by XRPD.

[5] = Formulation solution stability experiments at 5° C.; conditions: thermodynamic from solid; for solubility at 2 days: aqueous buffer, 5° C., read-out: citrate solubility (supernatant concentration)
Procedure: The five formulations are shown in Table 7-2, and the characterization results are summarized in Example 7. The procedure is summarized below. • 1. […] Add about 149 mg citric acid into the volumetric flask of formulation 1/2/3/4. • 3. Add about 2037 mg of the corresponding sugar into the volumetric flask of formulation 2/3/4. […] Dilute to volume with water for formulation 1/2/3/4. • 5. Dilute to volume with pH=4.0 citrate/phosphate buffer for formulation 5. […] Sonicate the samples for about 2 mins, and filter with 0.45 µm filter to obtain a clear solution. • 7. Fill and seal about 0.7 mL solutions into 32 separate HPLC vials per each formulation and store under corresponding conditions.
The stability samples were stored at 5° C., 25° C., 40° C. and 60° C. for 28 days. After 1 day, 3 days, 7 days, 14 days and 28 days storage, the stability samples at 25° C., 40° C. and 60° C. were taken out for HPLC and pH tests. After 28 days storage, the stability samples at 5° C. were taken out for HPLC and pH tests.
Some of the stability samples at 5° C. became a suspension after storage for 37 days. The samples were then stirred (1000 rpm) at 5° C. for two days, resulting in all samples becoming a suspension. Three of the samples under each condition were characterized to determine the identity of precipitate, solubility of citrate salt at 5° C., and stability at 5° C. • 1. Sample 1 of formulations 1/2/3/4/5 after stirring was isolated, XPRD/^1H NMR of the solid was obtained, and purity/assay/concentration/pH of the supernatant were tested. • 2. Sample 2 of formulations 1/2/3/4/5 after stirring was stored at RT for about 1 hour, and the solid dissolved. Purity/assay/concentration of the solution was tested. • 3. Sample 3 of formulations 1/2/3/4/5 after stirring was sonicated at RT for about 2-3 mins, and the solid dissolved.

[6] = pH = 3.0 buffer (50 mM HCl + KCl)
[7] = pH = 4.0 buffer (50 mM citrate)
[8] = pH = 5.0 buffer (50 mM citrate)
[9] = pH = 6.0 buffer (50 mM citrate)
[10] = pH = 7.0 buffer (50 mM phosphate)
[11] = pH = 8.0 buffer (50 mM phosphate)
[12] = pH = 6.0 buffer (50 mM phosphate)

CC(=O)NCC1CCN(Cc2cc(Oc3ccc(N4CCN(CCC(=O)O)CC4)nc3)nc(-c3cc(Cl)cc(Cl)c3)c2)CC1 [Sulfate Type B]
form change after DVS test (XRPD) [1]: Two additional peaks
crystallinity after grinding (XRPD) (Grinding stability): decreased after grinding
pH of supernatant (final pH) ([2]; 20% Captisol (pH = 5.0, w/v)): 2.6
S: solubility ([2]; 20% Captisol (pH = 5.0, w/v)): >44.5^1 mg/mL
FC: form change (XRPD of precipitate) ([2]; H2O): N (N: solid form not changed)
pH of supernatant (final pH) ([2]; H2O): 2.4
S: solubility ([2]; H2O): 1.97 mg/mL
FC: form change (XRPD of precipitate) [2, 6]: 1 (1/2/3/4/5: new Form 1/2/3/4/5)
pH of supernatant (final pH) [2, 6]: 2.3
S: solubility [2, 6]: 8.00 mg/mL
FC: form change (XRPD of precipitate) [2, 7]: Low (Low: low crystallinity)
pH of supernatant (final pH) [2, 7]: 3.8
S: solubility [2, 7]: 2.33 mg/mL
FC: form change (XRPD of precipitate) [2, 8]: 3 (1/2/3/4/5: new Form 1/2/3/4/5)
pH of supernatant (final pH) [2, 8]: 4.4
S: solubility [2, 8]: 1.66* mg/mL
FC: form change (XRPD of precipitate) [2, 9]: 3 (1/2/3/4/5: new Form 1/2/3/4/5)
pH of supernatant (final pH) [2, 9]: 4.3
S: solubility [2, 9]: 0.93* mg/mL
FC: form change (XRPD of precipitate) [2, 10]: 2 (1/2/3/4/5: new Form 1/2/3/4/5)
pH of supernatant (final pH) [2, 10]: 5.6
S: solubility [2, 10]: 0.61* mg/mL
pH of supernatant (final pH) [2, 11]: 6.9
S: solubility [2, 11]: 0.04* mg/mL
Area % (purity of supernatant) [3, 7]: 99.2 Area %
FC: form change (XRPD of precipitate) [3, 7]: Low (Low; low crystallinity)
pH (final, after adjustment where adjusted) [3, 7]: 3.9
S: solubility [3, 7]: 2.29 mg/mL
Area % (purity of supernatant) [3, 8]: 99.4 Area %
FC: form change (XRPD of precipitate) [3, 8]: 3 (3/4/6/7/8: new Form 3/4/6/7/8)
pH (final, after adjustment where adjusted) [3, 8]: 5.0*
pH before adjustment (in brackets) [3, 8]: (4.5)
S: solubility [3, 8]: 6.82^# mg/mL
Area % (purity of supernatant) [3, 9]: 92.6 Area %
FC: form change (XRPD of precipitate) [3, 9]: 6 (3/4/6/7/8: new Form 3/4/6/7/8)
pH (final, after adjustment where adjusted) [3, 9]: 6.1*
pH before adjustment (in brackets) [3, 9]: (4.4)
S: solubility [3, 9]: 0.07 mg/mL
Area % (purity of supernatant) [3, 12]: 88.2 Area %
pH (final, after adjustment where adjusted) [3, 12]: 6.2*
pH before adjustment (in brackets) [3, 12]: (3.0)
S: solubility [3, 12]: 0.06 mg/mL

CC(=O)NCC1CCN(Cc2cc(Oc3ccc(N4CCN(CCC(=O)O)CC4)nc3)nc(-c3cc(Cl)cc(Cl)c3)c2)CC1 [citrate salt]
solubility at 24 h [4]: > 50 mg/mL
solubility at 2 days ([5]; formulation solution with sugar (supernatant), presence of sugars, lowest value): 10.4 mg/mL
solubility at 2 days ([5]; formulation solution without sugars (supernatant), without sugars): 16.9 mg/mL
solubility ([5]; formulation solutions 1/2/3/4/5, aqueous buffer, rt, all solids dissolved once warmed up, read-out: solubility of citrate salt): > 20 mg/mL
